Test results reported in US7202374B2, “Fullerene derivatives and their metal complexes” (Mitsubishi Chemical Corporation, priority 2002, dated 2007).

Tests used:
[1] = Solubility in n-hexane (stir 1 hour, centrifuge, weigh dried residue of supernatant); type: physicochemical; conditions: for solubility in n-hexane: room temperature (25° C.), stirred 1 hour
Protocol: The solubility in n-hexane at 25° C. is determined as follows. In some detail, a predetermined amount of n-hexane is added to a fullerene derivative. The mixture is then stirred at 25° C. for 1 hour. The resulting slurry is then subjected to centrifugal separation. The solution is then decanted. The solvent is then distilled off the resulting supernatant liquid. The resulting precipitate is dried in vacuo, and then measured for weight. Thus, the solubility in n-hexane at 25° C. is calculated.
To 100 mg of C60[CH2Si(CH3)3]5H was added 0.5 ml of n-hexane. The mixture was then stirred at 25° C. for 1 hour. The slurry was purified, and then subjected to centrifugal separation by a centrifugal separator. The resulting supernatant liquid was withdrawn. The solvent was then distilled off. The residue was then dried in vacuo. The weight of the residue was then measured. The result was 32.5 mg.

[2] = Stability of the solid at room temperature in the air; type: physicochemical; conditions: solid (brown powder)

solubility in n-hexane [1] | stability when solid [2] | solubility in n-hexane measured at 50° C. ([1]; 50° C., otherwise same conditions as in Example 1) | Substance
11 mg/mL | stable at room temperature in the air | – | C60{CH2Si(CH3)3}3H
5.0 mg/mL | – | – | Rh[C60{CH2Si(CH3)3}3](1,5-cyclooctadiene)
less than 0.001 mg/ml | – | – | (C6H5)5C60H
about 0.05 mg/ml | – | about 0.2 mg/ml | C60[CH2Si(CH3)3]2
65 mg/mL | stable at room temperature in the air | – | C60[CH2Si(CH3)3]5H
less than 0.001 mg/ml | – | – | (CH3)5C60H
